Measured values: PubChem BioAssay AID1963974 (Molecular Pharmacology Branch, DTP, NCI, 2024)
Several values for one entry are separate records, joined by “and”; a condition that tells them apart may be missing. Equal values may be shown once.

Tested on: 648629-189-R-J1-PDC spheroids with HUVEC/MSC, viability
Experiment: Anticancer human tumor 648629-189-R-J1-PDC patient-derived bladder carcinoma cell line growth inhibition [PI3K]
Details: for viability, T/C: stronger effect = lower value
How it was run: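 Agents were dosed from a top concentration near clinical Cmax (otherwise 10 microM) in half-log decrements, alone or combined with PI3K inhibitors. The spheroids contain tumor cells plus endothelial (HUVEC) and MSC stroma; viability is measured.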

[1] = curve of first compound, second compound 0.00316 µM
[2] = curve of first compound, second compound 0.01 µM
[3] = curve of first compound, second compound 0.0316 µM
[4] = curve of first compound, second compound 0.1 µM
[5] = curve of first compound, second compound 0.316 µM
[6] = curve of first compound, second compound 1 µM
[7] = second compound 0.00316 µM, first compound 0.0316 µM
[8] = second compound 0.00316 µM, first compound 0.1 µM
[9] = second compound 0.00316 µM, first compound 0.316 µM
[10] = second compound 0.00316 µM, first compound 1 µM
[11] = second compound 0.01 µM, first compound 0.0316 µM
[12] = second compound 0.01 µM, first compound 0.1 µM
[13] = second compound 0.01 µM, first compound 0.316 µM
[14] = second compound 0.01 µM, first compound 1 µM
[15] = second compound 0.0316 µM, first compound 0.0316 µM
[16] = second compound 0.0316 µM, first compound 0.1 µM
[17] = second compound 0.0316 µM, first compound 0.316 µM
[18] = second compound 0.0316 µM, first compound 1 µM
[19] = second compound 0.0316 µM, first compound 3.16 µM
[20] = second compound 0.0316 µM, first compound 10 µM
[21] = second compound 0.1 µM, first compound 0.0316 µM
[22] = second compound 0.1 µM, first compound 0.1 µM
[23] = second compound 0.1 µM, first compound 0.316 µM
[24] = second compound 0.1 µM, first compound 1 µM
[25] = second compound 0.1 µM, first compound 3.16 µM
[26] = second compound 0.1 µM, first compound 10 µM
[27] = second compound 0.316 µM, first compound 0.0316 µM
[28] = second compound 0.316 µM, first compound 0.1 µM
[29] = second compound 0.316 µM, first compound 0.316 µM
[30] = second compound 0.316 µM, first compound 1 µM
[31] = second compound 0.316 µM, first compound 3.16 µM
[32] = second compound 0.316 µM, first compound 10 µM
[33] = second compound 1 µM, first compound 0.0316 µM
[34] = second compound 1 µM, first compound 0.1 µM
[35] = second compound 1 µM, first compound 0.316 µM
[36] = second compound 1 µM, first compound 1 µM
[37] = second compound 1 µM, first compound 3.16 µM
[38] = second compound 1 µM, first compound 10 µM
[39] = curve of first compound, second compound 3.16 µM
[40] = curve of first compound, second compound 10 µM
[41] = second compound 3.16 µM, first compound 0.0316 µM
[42] = second compound 3.16 µM, first compound 0.1 µM
[43] = second compound 3.16 µM, first compound 0.316 µM
[44] = second compound 3.16 µM, first compound 1 µM
[45] = second compound 3.16 µM, first compound 3.16 µM
[46] = second compound 3.16 µM, first compound 10 µM
[47] = second compound 10 µM, first compound 0.0316 µM
[48] = second compound 10 µM, first compound 0.1 µM
[49] = second compound 10 µM, first compound 0.316 µM
[50] = second compound 10 µM, first compound 1 µM
[51] = second compound 10 µM, first compound 3.16 µM
[52] = second compound 10 µM, first compound 10 µM
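Note: spheroids exposed to agents for seven days before reading.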
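Throughout, for viability, T/C: percent of vehicle control luminescence where 100% = DMSO treated spheroids.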

C[C@@H](NC(=O)c1ncnc(N)c1Cl)c1ncc(C(=O)Nc2cc(C(F)(F)F)c(Cl)cn2)s1 + COc1c(OCCCN2CCOCC2)ccc2c3n(c(=NC(=O)c4cnc(N)nc4)nc12)CCN3
IC50 [1]: > 10 µM
IC50 [2]: > 10 µM
IC50 [3]: > 10 µM
IC50 [4]: > 10 µM
IC50 [5]: < 0.0316 µM
IC50 [6]: < 0.0316 µM
viability, T/C [7]: 105%
viability, T/C [8]: 106%
viability, T/C [9]: 103%
viability, T/C [10]: 107%
viability, T/C (second compound 0.00316 µM, first compound 3.16 µM): 112%
viability, T/C (second compound 0.00316 µM, first compound 10 µM): 116%
viability, T/C [11]: 99.9%
viability, T/C [12]: 111%
viability, T/C [13]: 90.4%
viability, T/C [14]: 101%
viability, T/C (second compound 0.01 µM, first compound 3.16 µM): 128%
viability, T/C (second compound 0.01 µM, first compound 10 µM): 113%
viability, T/C [15]: 95.8%
viability, T/C [16]: 93.8%
viability, T/C [17]: 109%
viability, T/C [18]: 94.9%
viability, T/C [19]: 104%
viability, T/C [20]: 90%
viability, T/C [21]: 66.6%
viability, T/C [22]: 70.3%
viability, T/C [23]: 60.8%
viability, T/C [24]: 65.2%
viability, T/C [25]: 67.3%
viability, T/C [26]: 68.9%
viability, T/C [27]: 23.6%
viability, T/C [28]: 21.7%
viability, T/C [29]: 19.4%
viability, T/C [30]: 27.9%
viability, T/C [31]: 26.4%
viability, T/C [32]: 25.8%
viability, T/C [33]: 4.31%
viability, T/C [34]: 4.06%
viability, T/C [35]: 3.53%
viability, T/C [36]: 4.37%
viability, T/C [37]: 4.83%
viability, T/C [38]: 6.55%

Cn1nccc1Nc1nccc(-c2ccn(C(CO)c3ccc(Cl)c(F)c3)c(=O)c2)n1 (stereo not given) + CC(Nc1ncnc2nc[nH]c12)c1cc2cccc(Cl)c2c(=O)n1-c1ccccc1
IC50 [3]: > 10 µM
IC50 [4]: > 10 µM
IC50 [5]: > 10 µM
IC50 [6]: > 10 µM
IC50 [39]: > 10 µM
IC50 [40]: > 10 µM
viability, T/C [15]: 104%
viability, T/C [16]: 95.8%
viability, T/C [17]: 101%
viability, T/C [18]: 110%
viability, T/C [19]: 94%
viability, T/C [20]: 86.5%
viability, T/C [21]: 101%
viability, T/C [22]: 88.9%
viability, T/C [23]: 102%
viability, T/C [24]: 105%
viability, T/C [25]: 100%
viability, T/C [26]: 88.4%
viability, T/C [27]: 116%
viability, T/C [28]: 96.2%
viability, T/C [29]: 96.8%
viability, T/C [30]: 88.7%
viability, T/C [31]: 101%
viability, T/C [32]: 80.4%
viability, T/C [33]: 104%
viability, T/C [34]: 93.9%
viability, T/C [35]: 101%
viability, T/C [36]: 105%
viability, T/C [37]: 102%
viability, T/C [38]: 79.3%
viability, T/C [41]: 88.5%
viability, T/C [42]: 103%
viability, T/C [43]: 100%
viability, T/C [44]: 100%
viability, T/C [45]: 93%
viability, T/C [46]: 73.6%
viability, T/C [47]: 86.5%
viability, T/C [48]: 80.6%
viability, T/C [49]: 79.9%
viability, T/C [50]: 90.8%
viability, T/C [51]: 97.7%
viability, T/C [52]: 78.5%

CC(Cn1ccc(-c2ccc(C#N)c(Cl)c2)n1)NC(=O)c1cc(C(C)O)[nH]n1 (stereo not given) + CC(Nc1ncnc2nc[nH]c12)c1cc2cccc(Cl)c2c(=O)n1-c1ccccc1
IC50 [3]: > 10 µM
IC50 [4]: > 10 µM
IC50 [5]: > 10 µM
IC50 [6]: > 10 µM
IC50 [39]: > 10 µM
IC50 [40]: > 10 µM
viability, T/C [15]: 99.4%
viability, T/C [16]: 91.1%
viability, T/C [17]: 116%
viability, T/C [18]: 94%
viability, T/C [19]: 105%
viability, T/C [20]: 84.5%
viability, T/C [21]: 99%
viability, T/C [22]: 89.3%
viability, T/C [23]: 115%
viability, T/C [24]: 108%
viability, T/C [25]: 108%
viability, T/C [26]: 80.5%
viability, T/C [27]: 97.9%
viability, T/C [28]: 99%
viability, T/C [29]: 95.2%
viability, T/C [30]: 119%
viability, T/C [31]: 99.4%
viability, T/C [32]: 87.3%
viability, T/C [33]: 107%
viability, T/C [34]: 93.8%
viability, T/C [35]: 106%
viability, T/C [36]: 113%
viability, T/C [37]: 90.8%
viability, T/C [38]: 80%
viability, T/C [41]: 92.2%
viability, T/C [42]: 96%
viability, T/C [43]: 94.7%
viability, T/C [44]: 91.3%
viability, T/C [45]: 92.4%
viability, T/C [46]: 69.5%
viability, T/C [47]: 78.4%
viability, T/C [48]: 93.3%
viability, T/C [49]: 86.8%
viability, T/C [50]: 79.7%
viability, T/C [51]: 89.7%
viability, T/C [52]: 69%

C[C@@H](NC(=O)c1ncnc(N)c1Cl)c1ncc(C(=O)Nc2cc(C(F)(F)F)c(Cl)cn2)s1
viability, T/C (compound 0.0316 µM): 105% [middle of 4 runs]
viability, T/C (compound 0.1 µM): 98.5% [middle of 4 runs]
viability, T/C (compound 0.316 µM): 103% [middle of 4 runs]
viability, T/C (compound 1 µM): 106% and 107% (2×) and 91.5%
viability, T/C (compound 3.16 µM): 114% [middle of 4 runs]
viability, T/C (compound 10 µM): 117% [middle of 4 runs]
IC50 (curve of compound): > 10 µM

CCN1CCN(Cc2ccc(Nc3ncc(F)c(-c4cc(F)c5nc(C)n(C(C)C)c5c4)n3)nc2)CC1 + COc1c(OCCCN2CCOCC2)ccc2c3n(c(=NC(=O)c4cnc(N)nc4)nc12)CCN3
IC50 [1]: > 1 µM
IC50 [2]: > 1 µM
IC50 [3]: > 1 µM
IC50 [4]: > 1 µM
IC50 [5]: < 0.00316 µM
IC50 [6]: < 0.00316 µM
viability, T/C (second compound 0.00316 µM, first compound 0.00316 µM): 91%
viability, T/C (second compound 0.00316 µM, first compound 0.01 µM): 94.8%
viability, T/C [7]: 110%
viability, T/C [8]: 101%
viability, T/C [9]: 115%
viability, T/C [10]: 104%
viability, T/C (second compound 0.01 µM, first compound 0.00316 µM): 102%
viability, T/C (second compound 0.01 µM, first compound 0.01 µM): 87.8%
viability, T/C [11]: 98.9%
viability, T/C [12]: 96.5%
viability, T/C [13]: 103%
viability, T/C [14]: 106%
viability, T/C (second compound 0.0316 µM, first compound 0.00316 µM): 84.9%
viability, T/C (second compound 0.0316 µM, first compound 0.01 µM): 79%
viability, T/C [15]: 91.3%
viability, T/C [16]: 88.5%
viability, T/C [17]: 87.9%
viability, T/C [18]: 91%
viability, T/C (second compound 0.1 µM, first compound 0.00316 µM): 58.6%
viability, T/C (second compound 0.1 µM, first compound 0.01 µM): 62.4%
viability, T/C [21]: 56%
viability, T/C [22]: 58.5%
viability, T/C [23]: 66.6%
viability, T/C [24]: 66.1%
viability, T/C (second compound 0.316 µM, first compound 0.00316 µM): 21.4%
viability, T/C (second compound 0.316 µM, first compound 0.01 µM): 18.9%
viability, T/C [27]: 18.8%
viability, T/C [28]: 19.7%
viability, T/C [29]: 24.1%
viability, T/C [30]: 21.7%
viability, T/C (second compound 1 µM, first compound 0.00316 µM): 3.05%
viability, T/C (second compound 1 µM, first compound 0.01 µM): 2.93%
viability, T/C [33]: 2.76%
viability, T/C [34]: 4.51%
viability, T/C [35]: 6.23%
viability, T/C [36]: 9.27%
